Columns and labels:
[1] = test system: pyruvate kinase (pyk2, MALCv4_3080); test: Effect of effectors on activity of purified recombinant pyruvate kinase; format: biochemical, Methylomicrobium alcaliphilum 20Z; settings: for Relative activity: control without effector = 100; for stimulation of enzyme activity: in the presence of the RuMP pathway intermediate
Procedure: Methanotrophic pyruvate kinase-purification and characterization.
(§1) Protein purification and characterization. Activities of key enzymes of the central metabolic pathways were measured as described. Pyruvate forming activity in cell-free extracts of M. alcaliphilus 20Z was also measured using Pyruvate Assay Kit (BioVision Inc. CA, USA). Recombinant pyruvate kinase PK-ubiqitin-His6 (“His6” disclosed as SEQ ID NO: 7) was obtained by cloning of the pyk2 gene (MALCv4_3080) in the vector pHUE and expressing in E. coli BL21 (DE3) cells growing in the presence of 0.5 mM IPTG for 5 hours at 37° C. PK-ubiqitin-His6 enzyme (“His6” disclosed as SEQ ID NO: 7) was purified by affinity chromatography on a Ni^2+-NTA column as described earlier.

[2] = target: pyruvate kinase 2 from M. alcaliphilum 20Z (Methylotuvimicrobium alcaliphilum, UniProt G4T2L7); format: biochemical, Methylomicrobium alcaliphilum 20Z; settings: in the presence of 2.5 mM ribose-5-phosphate; read-out: S0.5 (used in place of Km, non Michaelis-Menten)
Chain of pyruvate kinase 2 from M. alcaliphilum 20Z (G4T2L7 entry or part of it): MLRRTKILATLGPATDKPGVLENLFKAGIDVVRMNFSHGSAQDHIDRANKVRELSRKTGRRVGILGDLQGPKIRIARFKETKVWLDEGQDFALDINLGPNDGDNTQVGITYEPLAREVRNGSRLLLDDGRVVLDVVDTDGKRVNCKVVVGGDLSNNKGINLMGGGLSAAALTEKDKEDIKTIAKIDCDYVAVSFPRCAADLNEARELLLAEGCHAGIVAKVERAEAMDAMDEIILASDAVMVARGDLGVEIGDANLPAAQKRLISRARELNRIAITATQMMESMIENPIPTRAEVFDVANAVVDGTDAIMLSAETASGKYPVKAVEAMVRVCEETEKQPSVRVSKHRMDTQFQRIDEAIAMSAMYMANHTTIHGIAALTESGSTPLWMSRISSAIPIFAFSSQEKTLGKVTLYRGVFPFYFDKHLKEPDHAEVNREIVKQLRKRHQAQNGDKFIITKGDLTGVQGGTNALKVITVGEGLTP
Procedure: as §1

20ZER = test: Accumulation of extracellular metabolites by the culture with an inhibitor of the cyt bc complex; format: cell-based, Methylomicrobium alcaliphilum; settings: 20ZER + antimycin, dO2 ^ 40%
Procedure: Cultivation and growth parameters. M. alcaliphilum 20Z cells were grown using a mineral salts medium in either closed vials (50 ml culture in 250 ml vials, with shaking at 200 rpm) or bioreactor cultures (fed-batch or chemostat; 1 L working volume in a two liter bench top BioFlo™ 110 modular bioreactors, New Brunswick Scientific, Edison, N.J.). Cells were grown at 28-30° C. Optical density of cell cultures was measured on a Beckman DU® 640B spectrophotometer in plastic 1.5 mL cuvettes with a 1 cm path length. Chemostat cultures maintained a steady-state optical density at 600 nm (OD600) of approximately 2.0±0.2. […] Samples of inflow and outflow gases were either collected daily in triplicates for gas analysis or were analyzed immediately every 15 minutes using a SRI 8610C™ Gas Chromatograph connected to a bioreactor unit. The rates of methane consumption and H2 production were determined by incubating cell samples (50 ml, OD600 between 2 and 4) in closed 250 ml vials for 12-60 h at 28° C. […]

Molecule `O=C(O)[C@@H](CO)OP(=O)(O)O` [2-phosphoglycerate] has a Relative activity ([1]; effector 2 mM) of 75%.

`Nc1ncnc2c1ncn2[C@@H]1O[C@H](COP(=O)(O)O)[C@@H](O)[C@H]1O` [AMP] showed a Relative activity ([1]; effector 2 mM) of 126%.

In the case of `Nc1ncnc2c1ncn2[C@@H]1O[C@H](COP(=O)(O)OP(=O)(O)OP(=O)(O)O)[C@@H](O)[C@H]1O` [ATP], the “effect on enzyme activity” value [1] is reported as “strongly inhibited”, the Relative activity ([1]; effector 0.5 mM) is reported as 64% and the Relative activity ([1]; effector 1 mM) is reported as 32%. The Relative activity ([1]; effector 2 mM) was 12%.

`O=C(O)CC(O)(CC(=O)O)C(=O)O` [Citrate] gave a Relative activity ([1]; effector 1 mM) of 140%.

For `O=C[C@H](O)[C@H](O)COP(=O)(O)O` [Erythrose-4-phosphate], the Relative activity ([1]; effector 5 mM) was 740% and the “stimulation of enzyme activity” value [1] was 20 fold.

For `O=C(COP(=O)(O)O)[C@@H](O)[C@H](O)[C@H](O)COP(=O)(O)O` [Fructose-1,6-bisphosphate], the Relative activity ([1]; effector 5 mM) was 158%.

In the case of `O=C(COP(=O)(O)O)[C@@H](O)[C@H](O)[C@H](O)CO` [Fructose-1-phosphate], the Relative activity ([1]; effector 5 mM) is reported as 270%.

With `O=C(CO)[C@@H](O)[C@H](O)[C@H](O)COP(=O)(O)O` [Fructose-6-phosphate] the “inhibitory effect of ATP, PPi and Pi after addition of the activator” value [1] was “completely abolished”, the Relative activity ([1]; effector 5 mM) was 2518% and the “stimulation of enzyme activity” value [1] was 20 fold.

Molecule `O=P(O)(O)O[C@H]1O[C@H](CO)[C@@H](O)[C@H](O)[C@H]1O` [Glucose-1-phosphate] has a Relative activity ([1]; effector 5 mM) of 67%.

In the case of `O=C[C@H](O)[C@@H](O)[C@H](O)[C@H](O)COP(=O)(O)O` [Glucose-6-phosphate], the Relative activity ([1]; effector 5 mM) is reported as 2545% and the “stimulation of enzyme activity” value [1] is reported as 20 fold.

Work on `O=C(O)CC(O)C(=O)O` (centres unmarked) [Malate] yielded a Relative activity ([1]; effector 1 mM) of 82%.

`[Cl-].[Cl-].[Mg+2]` [MgCl2] gave a Km [2] of 1990 µM.

For `O=P(O)(O)OP(=O)(O)O` [PPi, pyrophosphate], the “effect on enzyme activity” value [1] was “strongly inhibited” and the Relative activity ([1]; effector 2 mM) was 14%.

For `O=P(O)(O)O` [Pi, inorganic phosphate], the “effect on enzyme activity” value [1] was “strongly inhibited” and the Relative activity ([1]; effector 6 mM) was 11%.

Work on `O=P(O)(O)O[C@H]1O[C@H](CO)[C@@H](O)[C@H]1O` [Ribose-1-phosphate] yielded a Relative activity ([1]; effector 5 mM) of 92%.

For `O=C[C@H](O)[C@H](O)[C@H](O)COP(=O)(O)O` [Ribose-5-phosphate], the “inhibitory effect of ATP, PPi and Pi after addition of the activator” value [1] was “completely abolished”, the Relative activity ([1]; effector 5 mM) was 2092% and the “stimulation of enzyme activity” value [1] was 20 fold.

For `O=C(CO)[C@H](O)[C@H](O)COP(=O)(O)O` [Ribulose-5-phosphate], the Relative activity ([1]; effector 5 mM) was 1890% and the “stimulation of enzyme activity” value [1] was 20 fold.

For `N[C@@H](CO)C(=O)O` [Serine], the Relative activity ([1]; effector 1 mM) was 133%.

With antimycin A the “Accumulation of extracellular Acetate” value (20ZER) was 3955 ± 230 μmol L^−1 g^−1 CDW and the “Accumulation of extracellular Lactate” value (20ZER) was 437 ± 30 μmol L^−1 g^−1 CDW.
